Experimental data from paper PMC9428248 (2022).

How the values were obtained:
[1] = test system: Q2 150-206 (RNA, G4) GAGACUAAUGAACUCUUCCGGGAUGGGGUAAACUGGGGUCGCAUUGUGGCCUUUUUCUCCUUC; assay: fluorescence enhancement; conditions: 100 mM KCl; 10 mM Tris pH 7.0, 25 °C, 10 µM RNA, 1 µM NMM
[2] = test system: XS 38-206 (RNA, mRNA element) GAGACUGAGGGAGGCAGGCGACGAGUUUGAACUGCGGUACCGGCGGGCAUUCAGUGACCUGACAUCCCAGCUCCACAUCACCCCAGGGACAGCAUAUCAGAGCUUUGAACAGGUAGUGAAUGAACUCUUCCGGGAUGGGGUAAACUGGGGUCGCAUUGUGGCCUUUUUCUCCUUC; assay: fluorescence enhancement; conditions: 100 mM KCl; 10 mM Tris pH 7.0, 25 °C, 10 µM RNA, 1 µM NMM

binding [1]: yes
binding [2]: yes
SMILES: CCc1c(C)c2cc3nc(cc4nc(cc5c(CC)c(C)c(cc1[nH]2)n5C)C(C)=C4CCC(=O)O)C(CCC(=O)O)=C3C
